Entries after “also recorded” stand apart in the source; their conditions may differ.

The values that follow come from US20080009487A1, “Treatment of athersclerotic disease” (priority 2006, published 2008).

For series [1], the system named is C. pneumoniae. The following applies: C. pneumoniae-infected rabbits, previously published study; cited from earlier work.
Series [2] relates to C. pneumoniae. Briefly: Rabbit model of atherosclerosis accelerated by C. pneumoniae infection, high cholesterol diet. It counts as in vivo. The following applies: C. pneumoniae-infected rabbits; for infectious burden of Chlamydia in the vasculature (in words): versus placebo. Here is the method: Thirty received three separate C. pneumoniae inoculations performed at 3-week intervals. Similarly, 15 control rabbits were intranasally inoculated with 1 mL of normal saline under the same conditions. [table] Nineteen weeks after beginning antibiotic treatment, the rabbits were euthanized. After euthanasia, hearts were examined histologically and by immunofluorescence. Animal serum samples were also examined for seropositivity to the infecting organism. […] In the current study, the time after infection and treatment with either azithromycin or rifalazil was increased by seven weeks, a more rigorous test for the durability of treatment. Consistent with previously published work, C. pneumoniae-infected rabbits accumulated more plaque than non-infected rabbits (p=0.08).

Series [3] is classed as physicochemical. Here is the method: Rifalazil is a highly lipophilic molecule having limited solubility in water at physiological pH (approximately 200 ng/mL). Evidence of the highly lipophilic behavior of the molecule is illustrated in the partition coefficient (n-octanol:water) of between 70, 569 and over 900,000 in different experiments (Log P range; 4.9-5.9).
Series [4] can be described thus: Degradation to 25-desacetyl derivative under acidic and basic conditions. It counts as physicochemical. The text has this:
Rifalazil degrades to a 25-desacetyl derivative under both acidic and basic conditions. Typical of ester hydrolysis, the degradation in highly alkaline solutions is rapid while at an acidic pH, e.g., pH 1, the degradation at room temperature is slower, approximately 6% in one hour.

In series [5] the test system is C. pneumoniae. Briefly: Potency against C. pneumoniae relative to roxithromycin. Format: cell-based. The settings on record: fold more potent than roxithromycin. The source says: (§1) Both preclinical and clinical lines of evidence support the use of rifalazil in the methods of the invention. […] In addition, based on overall safety data in animals and man, we believe that a dose of rifalazil can safely be administered, tolerated, and will likely result in clinical benefit through its anti-Chlamydia action in these patients.

In another series the test system is Chlamydia. In words: Phase 2 study in men with non-gonococcal urethritis. The settings on record: single oral dose. Format: in vivo.
Excerpt: as §1

Turning to `CC[C@H]1OC(=O)[C@H](C)[C@@H](O[C@H]2C[C@@](C)(OC)[C@@H](O)[C@H](C)O2)[C@H](C)[C@@H](O[C@@H]2O[C@H](C)C[C@H](N(C)C)[C@H]2O)[C@](C)(O)C[C@@H](C)CN(C)[C@H](C)[C@@H](O)[C@]1(C)O` [azithromycin, reference compound], the “prevention of Chlamydia-induced plaque formation (in words)” value in the series on C. pneumoniae [1] was “significant effect in preventing Chlamydia-induced plaque formation”. Besides, the “infectious burden of Chlamydia in the vasculature (in words)” value in the series on C. pneumoniae [2] is “reduced the infectious burden of Chlamydia in the vasculature”.

For `CO[C@H]1/C=C/O[C@@]2(C)Oc3c(C)c(O)c4c(=O)c(c5oc6cc(N7CCN(CC(C)C)CC7)cc(O)c6nc-5c4c3C2=O)NC(=O)/C(C)=C\C=C\[C@H](C)[C@H](O)[C@@H](C)[C@@H](O)[C@@H](C)[C@H](OC(C)=O)[C@@H]1C` [rifalazil, 3′-hydroxy-5′-(4-isobutyl-1-piperazinyl)benzoxazinorifamycin], the “partition coefficient (n-octanol:water)” value in series [3] is listed as 70, 569-900,000. In addition, the “degradation to 25-desacetyl derivative” value in series [4] (acidic pH 1, room temperature, in one hour) is recorded as “approximately 6%”. Also, the “degradation (ester hydrolysis)” value in series [4] (highly alkaline solutions) was “rapid”. Besides, in the series with C. pneumoniae [2], the “plaque area stenosis compared with placebo-treated animals (in words)” value is “reduced C. pneumoniae burden and plaque area stenosis; also recorded: showed a trend in producing significantly reduced plaque area stenosis”; the “infectious burden of Chlamydia in the vasculature (in words)” value was “reduced C. pneumoniae burden; also recorded: reduced the infectious burden of Chlamydia in the vasculature”. For the same compound, the “potency against C. pneumoniae relative to roxithromycin” value in the series on C. pneumoniae [5] is 2000 times. In addition, the “patients in whom Chlamydia was eradicated” value in the series with Chlamydia is greater than 86%.
